# Experimental data published in patent US20190225647A1, “ANTIGENIC PEPTIDES FOR THE DIAGNOSIS, THERAPY MONITORING AND/OR TREATMENT OF PSORIASIS VULGARIS” (Ludwig-Maximilians-Universität München, priority 2015, published 2019).
# B1: IFN-γ: interferon-γ, increases the expression of HLA-class I molecules (protein, UniProt P01579 24-161, looked up)
# Interferon gamma: QDPYVKEAENLKKYFNAGHSDVADNGTLFLGILKNWKEESDRKIMQSQIVSFYFKLFKNFKDDQSIQKSVETIKEDMNVKFFNSNKKKRDDFEKLTNYSVTDLNVQRKAIHELIQVMAELSPAAKTGKRKRSQMLFRG
# Experiments:
# [1] = test system: CD8+ T cells from psoriasis patients; experiment: Staining of PBMC from psoriasis patients with FITC-labelled HLA-C*06:02-peptide dextramers; format: binding, human; conditions: flow cytometry
# Experimental: We used FITC-labelled HLA-C*06:02-peptide dextramers to stain CD8^+ T cells from psoriasis patients. […] Thus, the peptides can be used in complex with HLA-C dextramers to address autoreactive T cells in blood of psoriasis patients. • Autoantigenic peptides complexed with HLA-C*06:02-multimers can be used to identify autoreactive CD8^+ T cells in psoriasis. […]
# Fluorescent dextramers were prepared of HLA-C*06:02 and antigenic or control peptides. […] PBMC from psoriasis patients were incubated with standard dilutions of the HLA-C*06:02-peptide dextramers and a phycoerythrin-labelled CD8 antibody and the frequency of double stained cells subsequently determined by flow cytometry on a FACScan flow cytometer. Data were analyzed by FlowJo software 887.
# HLA-class I = format: cell-based; conditions: HLA-C*06:02-positive primary human melanocytes preincubated with IFN-γ
# Excerpt: When assessing the results given below, however, it needs to be considered that the percentage of activated i.e. green-fluorescing cells in this complex cell-based recombinant assay may differ between different experiments. It may be influenced by the stability of the respective hybridoma cell batch and, in co-culture experiments, by the quantitative ratio of stimulatory and hybridoma cells, which decides the probability of cell-cell contacts (Siewert et al., 2011).
# We isolated primary melanocytes from the skin and seeded them in explant culture. Cell type was confirmed by the contents of brownish melanosomes and staining with a p75-specific antibody against melanocytes. […] This effect was further enhanced, when HLA-C*06:02-positive melanocytes were preincubated with interferon (IFN)-γ, which increases the expression of HLA-class I molecules (FIG. 2C). […] TCR-hybridoma activation was HLA-restricted.
# (B) TCR-hybridoma activation by HLA-C*06:02-positive (left) or HLA-C*06:02-negative (right) primary human melanocytes (MC) in the absence or presence of IFN-γ or a HLA-class I blocking antibody. Frequency of NFAT-sGFP^+ hybridoma cells was assessed by flow cytometry and normalized to the maximum value induced by CD3 activation in the same experiment. […]
Molecule,staining / binding of CD8+ blood T cells by HLA-C*06:02-peptide dextramers [1],effect of IFN-γ addition on TCR-hybridoma activation (HLA-class I)
"VRHDGGNVL [unrelated peptide (Falk et al., 1993), HLA-C*06:02 ligand, negative control complexed with HLA-C*06:02-dextramers]",did not bind,–
B1,–,increased
